Source: ChEMBL document CHEMBL5252551, “A hit deconstruction approach for the discovery of fetal hemoglobin inducers” (Bioorg Med Chem Lett, 2018)
≈ marks a conversion by molar mass, not a printed value. Blank lines part the entries; values can stand above or below the molecule they belong to. Calls of active or inactive are those of the source. The rule behind the calls is not given here.

Key:
[1] = Induction of HbF production in human erythroid progenitor cells measured after 3 days by ELISA assay; type: functional, cell-based; conditions: Erythroid progenitor cell, 72 h
[2] = Solubility of the compound in FaSSIF; type: ADME
[3] = Cmax in Sprague-Dawley rat at 1 mg/kg,iv; type: ADME, organism-based; set-up: dose 1 mg/kg, route iv; conditions: in vivo
[4] = Cmax in Sprague-Dawley rat at 5 mg/kg,po; type: ADME, organism-based; set-up: dose 5 mg/kg, route po; conditions: in vivo
[5] = Volume of distribution at steady state in Sprague-Dawley rat at 5 mg/kg,po or 1 mg/kg,iv; type: ADME, organism-based; conditions: in vivo
[6] = Half life in Sprague-Dawley rat at 1 mg/kg, iv; type: ADME, organism-based; conditions: in vivo
[7] = Half life in Sprague-Dawley rat at 5 mg/kg,po; type: ADME, organism-based; conditions: in vivo
[8] = Dose normalized AUC in Sprague-Dawley rat at 1 mg/kg, iv; type: ADME, organism-based; conditions: in vivo
[9] = Dose normalized AUC in Sprague-Dawley rat at 5 mg/kg,po; type: ADME, organism-based; conditions: in vivo
[10] = Oral bioavailability in Sprague-Dawley rat at 5 mg/kg; type: ADME, organism-based; conditions: in vivo
[11] = Cmax in Sprague-Dawley rat at 10 mg/kg,po; type: ADME, organism-based; set-up: dose 10 mg/kg, route po; conditions: in vivo
[12] = Half life in Sprague-Dawley rat at 10 mg/kg,po; type: ADME, organism-based; conditions: in vivo
[13] = Dose normalized AUC in Sprague-Dawley rat at 10 mg/kg,po; type: ADME, organism-based; conditions: in vivo
[14] = Oral bioavailability in Sprague-Dawley rat at 10 mg/kg; type: ADME, organism-based; conditions: in vivo
[15] = Genotoxicity in Salmonella typhimurium in presence of S9 fraction by Ames test; type: toxicity, subcellular; conditions: salmonella enterica subsp. enterica serovar typhimurium
[16] = Genotoxicity in Salmonella typhimurium in absence of S9 fraction by Ames test; type: toxicity; conditions: salmonella enterica subsp. enterica serovar typhimurium
[17] = Solubility of the compound in simulated intestinal fluid measured after 4 hrs; type: ADME
[18] = (§1) Induction of HbF production in human erythroid progenitor cells at upto 33 uM measured after 3 days by ELISA assay; type: functional, cell-based; conditions: Erythroid progenitor cell, 72 h
[19] = Cmax in Sprague-Dawley rat at 100 mg/kg,po; type: ADME, organism-based; set-up: dose 100 mg/kg, route po; conditions: in vivo
[20] = Half life in Sprague-Dawley rat at 100 mg/kg,po; type: ADME, organism-based; conditions: in vivo
[21] = Dose normalized AUC in Sprague-Dawley rat at 100 mg/kg,po; type: ADME, organism-based; conditions: in vivo
[22] = Oral bioavailability in Sprague-Dawley rat at 100 mg/kg; type: ADME, organism-based; conditions: in vivo
[23] = Oral bioavailability in Sprague-Dawley rat at 28 mg/kg; type: ADME, organism-based; conditions: in vivo
[24] = Dose normalized AUC in Sprague-Dawley rat at 28 mg/kg,po; type: ADME, organism-based; conditions: in vivo
[25] = Half life in Sprague-Dawley rat at 28 mg/kg,po; type: ADME, organism-based; conditions: in vivo
[26] = Cmax in Sprague-Dawley rat at 28 mg/kg,po; type: ADME, organism-based; set-up: dose 28 mg/kg, route po; conditions: in vivo
[27] = test system: Erythroid progenitor cell; experiment: as §1; type: functional, cell-based; conditions: time 3.0 day

Structure (SMILES): NC(=O)CNC(=O)c1ccc2c(c1)B(O)OC2
EC50 ([1]; read-out: pEC50 (converted)): > 31600 nM

Structure (SMILES): O=C(O)c1ccn(-c2ccc3c(c2)B(O)OC3)c1
EC50 ([1]; read-out: pEC50 (converted)): 316 nM | solubility [2]: 510 µg/mL (≈ 2.1 mM)

Structure (SMILES): O=C(Nc1ccc2c(c1)B(O)OC2)c1cccn(Cc2ccccc2)c1=O
Cmax [3]: 792 ng/mL | Cmax [4]: 1420 ng/mL | Vdss [5]: 1.7 L/kg | half-life [6]: 6.4 h | half-life [7]: 4.5 h | AUC/dose [8]: 4210 kg·ng·h/mL/mg | AUC/dose [9]: 1120 kg·ng·h/mL/mg | bioavailability [10]: 27%

Structure (SMILES): OB1OCc2ccc(Oc3nnn[nH]3)cc21
EC50 ([1]; read-out: pEC50 (converted)): 129 nM | solubility [2]: > 1000 µg/mL

Structure (SMILES): O=C(O)Cc1ccc2c(c1)B(O)OC2
EC50 ([1]; read-out: pEC50 (converted)): 1070 nM | solubility [2]: > 1000 µg/mL

Structure (SMILES): O=C(O)c1ccc2c(c1)B(O)OC2
EC50 ([1]; read-out: pEC50 (converted)): 9330 nM | solubility [2]: 950 µg/mL (≈ 5.34 mM)

Structure (SMILES): O=C(Nc1cccn(Cc2ccccc2)c1=O)c1ccc2c(c1)B(O)OC2
EC50 ([1]; read-out: pEC50 (converted)): 1020 nM | solubility [2]: 3 µg/mL (≈ 0.00833 mM) | Activity [15]: Non-Toxic | Activity [16]: Non-Toxic | solubility at 4 h [17]: 3 µg/mL (≈ 0.00833 mM)

Structure (SMILES): COc1cc2c(cc1C(=O)NS(=O)(=O)c1ccccc1)B(O)OC2
EC50 [18]: > 31600 nM

Structure (SMILES): CC(C)C(C(=O)O)c1ccc2c(c1)B(O)OC2 (racemic)
EC50 ([1]; read-out: pEC50 (converted)): 646 nM | solubility [2]: > 1000 µg/mL

Structure (SMILES): OB1OCc2ccc(OCc3nnn[nH]3)cc21
Cmax [4]: 71 ng/mL | half-life [7]: 1.3 h | AUC/dose [9]: 38 kg·ng·h/mL/mg | bioavailability [10]: 13% | EC50 ([1]; read-out: pEC50 (converted)): 275 nM | solubility [2]: > 1000 µg/mL | Cmax [19]: 4900 ng/mL | half-life [20]: 3.54 h | AUC/dose [21]: 184 kg·ng·h/mL/mg | bioavailability [22]: 62%

Structure (SMILES): O=C(NS(=O)(=O)c1ccc2c(c1)B(O)OC2)c1ccccc1
EC50 ([1]; read-out: pEC50 (converted)): 110 nM | solubility [2]: 980 µg/mL (≈ 3.09 mM)

Structure (SMILES): CC(C(=O)NS(=O)(=O)C1CC1)c1ccc2c(c1)B(O)OC2 (racemic)
EC50 ([1]; read-out: pEC50 (converted)): 26.9 nM | solubility [2]: > 1000 µg/mL

Structure (SMILES): O=C(Nc1cccn(Cc2ccccc2)c1=O)c1cc(F)c2c(c1)B(O)OC2
EC50 ([1]; read-out: pEC50 (converted)): 2140 nM | solubility [2]: 8 µg/mL (≈ 0.0212 mM)

Structure (SMILES): Cc1ccc(NC(=O)c2cccn(Cc3ccccc3)c2=O)cc1B(O)O
Activity [27]: inactive | EC50 ([1]; read-out: pEC50 (converted)): > 31600 nM

Structure (SMILES): O=C(Nc1cccn(Cc2ccccc2)c1=O)c1ccc2c(c1F)B(O)OC2
EC50 ([1]; read-out: pEC50 (converted)): 91.2 nM | solubility [2]: 4 µg/mL (≈ 0.0106 mM)

Structure (SMILES): O=C(CCc1ccc2c(c1)B(O)OC2)NS(=O)(=O)c1ccccc1
EC50 ([1]; read-out: pEC50 (converted)): 832 nM | solubility [2]: > 1000 µg/mL

Structure (SMILES): O=C(Nc1cccc(B(O)O)c1)c1cccn(Cc2ccccc2)c1=O
Activity [27]: inactive | EC50 ([1]; read-out: pEC50 (converted)): > 31600 nM

Structure (SMILES): C[C@H](C(=O)O)c1ccc2c(c1)B(O)OC2
Cmax [4]: 1730 ng/mL | half-life [7]: 1.14 h | AUC/dose [9]: 451 kg·ng·h/mL/mg | bioavailability [10]: 88% | EC50 ([1]; read-out: pEC50 (converted)): 871 nM | solubility [2]: 950 µg/mL (≈ 4.61 mM) | Cmax [19]: 47200 ng/mL | half-life [20]: 4.53 h | AUC/dose [21]: 683 kg·ng·h/mL/mg | bioavailability [22]: > 100%

Structure (SMILES): NCc1ccc(S(=O)(=O)NC(=O)CCc2ccc3c(c2)B(O)OC3)cc1
EC50 [18]: 6030 nM

Structure (SMILES): CC(C)(C)OC(=O)NCc1ccc(S(=O)(=O)NC(=O)CCc2ccc3c(c2)B(O)OC3)cc1
EC50 [18]: 912 nM

Structure (SMILES): O=C(CNC(=O)c1ccc2c(c1)B(O)OC2)NCc1ccccc1
EC50 ([1]; read-out: pEC50 (converted)): > 31600 nM

Structure (SMILES): O=C(O)c1cccn1-c1ccc2c(c1)B(O)OC2
EC50 ([1]; read-out: pEC50 (converted)): 11500 nM | solubility [2]: > 1000 µg/mL

Structure (SMILES): O=C(O)CNC(=O)c1ccc2c(c1)B(O)OC2
EC50 ([1]; read-out: pEC50 (converted)): > 31600 nM

Structure (SMILES): CCC(C(=O)O)c1ccc2c(c1)B(O)OC2 (racemic)
EC50 ([1]; read-out: pEC50 (converted)): 50.1 nM | solubility [2]: 850 µg/mL (≈ 3.86 mM)

Other lines, results leading:

EC50 ([1]; read-out: pEC50 (converted)): 15.1 nM | solubility [2]: 880 µg/mL (≈ 2.72 mM)
Structure (SMILES): O=C(Cc1ccc2c(c1)B(O)OC2)NS(=O)(=O)C1CCCC1

Cmax [4]: 1180 ng/mL | half-life [7]: 1.05 h | AUC/dose [9]: 612 kg·ng·h/mL/mg | bioavailability [10]: 68% | EC50 ([1]; read-out: pEC50 (converted)): 26.3 nM | solubility [2]: 930 µg/mL (≈ 3.81 mM) | Cmax [11]: 3880 ng/mL | half-life [12]: 1.53 h | AUC/dose [13]: 1049 kg·ng·h/mL/mg | bioavailability [14]: > 100%
Structure (SMILES): CC(C)(c1ccc2c(c1)B(O)OC2)c1nnn[nH]1

Cmax [4]: 283 ng/mL | half-life [7]: 3.67 h | AUC/dose [9]: 103 kg·ng·h/mL/mg | bioavailability [10]: 24% | EC50 ([1]; read-out: pEC50 (converted)): 9.12 nM | solubility [2]: > 1000 µg/mL
Structure (SMILES): OB1OCc2ccc(Cc3nnn[nH]3)cc21

Cmax [4]: 1860 ng/mL | half-life [7]: 16.6 h | AUC/dose [9]: 429 kg·ng·h/mL/mg | bioavailability [10]: 83% | EC50 ([1]; read-out: EC50): 40 nM | EC50 ([1]; read-out: pEC50 (converted)): 39.8 nM | solubility [2]: > 1000 µg/mL | Cmax [11]: 2710 ng/mL | half-life [12]: 3.03 h | AUC/dose [13]: 283 kg·ng·h/mL/mg | bioavailability [14]: 55%
Structure (SMILES): C[C@@H](C(=O)O)c1ccc2c(c1)B(O)OC2

bioavailability [23]: > 100% | AUC/dose [24]: 2120 kg·ng·h/mL/mg | half-life [25]: 3.88 h | Cmax [26]: 53000 ng/mL | Cmax [4]: 1290 ng/mL | half-life [7]: 7.29 h | AUC/dose [9]: 560 kg·ng·h/mL/mg | bioavailability [10]: 28% | EC50 ([1]; read-out: pEC50 (converted)): 64.6 nM | solubility [2]: 900 µg/mL (≈ 2.72 mM)
Structure (SMILES): O=C(Cc1ccc2c(c1)B(O)OC2)NS(=O)(=O)c1ccccc1

EC50 ([1]; read-out: pEC50 (converted)): 1120 nM | solubility [2]: > 1000 µg/mL
Structure (SMILES): O=C(O)CCc1ccc2c(c1)B(O)OC2

EC50 ([1]; read-out: pEC50 (converted)): 115 nM | solubility [2]: > 1000 µg/mL
Structure (SMILES): CC(C)(C(=O)O)c1ccc2c(c1)B(O)OC2

EC50 ([1]; read-out: pEC50 (converted)): 47.9 nM | solubility [2]: > 1000 µg/mL
Structure (SMILES): CC(C(=O)O)c1ccc2c(c1)B(O)OC2 (racemic)

EC50 ([1]; read-out: pEC50 (converted)): 724 nM | solubility [2]: > 1000 µg/mL
Structure (SMILES): OB1OCc2ccc(Oc3nnn[nH]3)c(F)c21

EC50 ([1]; read-out: pEC50 (converted)): 18.2 nM | solubility [2]: 700 µg/mL (≈ 2.37 mM)
Structure (SMILES): O=C(Cc1ccc2c(c1)B(O)OC2)NS(=O)(=O)C1CC1

EC50 ([1]; read-out: pEC50 (converted)): > 31600 nM
Structure (SMILES): O=C(Nc1cccn(Cc2ccccc2)c1=O)c1cc2c(cc1F)COB2O

EC50 ([1]; read-out: pEC50 (converted)): > 31600 nM
Structure (SMILES): NC(=O)c1ccc2c(c1)B(O)OC2
